Measured values: article PMC7367283, “A PIP2 substitute mediates voltage sensor-pore coupling in KCNQ activation” (Communications Biology, 2020)

Target: T1, Kir1.1 (Homo sapiens, UniProt P48048)
T1 sequence (P48048 1-391): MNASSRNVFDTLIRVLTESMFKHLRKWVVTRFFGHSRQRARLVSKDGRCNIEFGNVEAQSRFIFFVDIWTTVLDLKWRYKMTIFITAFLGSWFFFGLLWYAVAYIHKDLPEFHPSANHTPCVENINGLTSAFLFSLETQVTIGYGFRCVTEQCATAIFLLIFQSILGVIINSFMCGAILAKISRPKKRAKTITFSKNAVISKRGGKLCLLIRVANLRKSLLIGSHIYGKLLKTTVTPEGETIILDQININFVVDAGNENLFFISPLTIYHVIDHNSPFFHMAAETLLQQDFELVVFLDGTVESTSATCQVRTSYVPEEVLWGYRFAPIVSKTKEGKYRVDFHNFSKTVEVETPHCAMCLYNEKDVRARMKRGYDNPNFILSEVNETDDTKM
Assay: Two-electrode voltage clamp of Kir1.1 in Xenopus oocytes
Format: cell-based
Details: 10 µM CP1; for Current (Fig. 6b): mean
Text: Since CP1 has a similar effect to PIP2 in mediating VSD-pore coupling in KCNQ channels, we tested if CP1 has effects on other ion channels that are also sensitive to PIP2 or are voltage activated and share general structural features of the VSD and the pore with KCNQ. […] On the other hand, NaV1.5 and KV4.2 are voltage-gated ion channels.
Fig. 6 Effects of CP1 on other ion channels expressed in Xenopus oocytes. a Currents of Kir1.1, CaV1.2, NaV1.5, hERG, and KV4.2 before and after application of 10 µM CP1, respectively. The voltages for holding, test, and returning pulses were Kir1.1, 0 mV, −100 to +60 mV, 0; CaV1.2, −100 mV, −100 to +60, −100 mV; NaV1.5, −100, −120 to +40 mV, −120 mV; hERG, −80 mV, −90 to +60 mV, −60 mV; KV4.2, −80 mV, −100 mV to +80 mV, −40 mV; HCN4, −30 mV, −30 to −140 mV, −120 mV. b Current–voltage relations of Kir1.1 channel in the absence or presence of 10 µM CP1 (n = 7). c–g G–V relations of indicated channels with and without 10 µM CP1. The ΔV1/2 of G–V relations (mV) are CaV1.2, 3.38 ± 0.71 mV (c); NaV1.5, −2.26 ± 0.95 mV (d); hERG, 6.85 ± 1.81 mV (e); KV 4.2, −2.26 ± 2.88 mV (f); HCN4, 17.13 ± 1.59 mV (g).
Complementary DNA (cDNA) encoding human KCNQ1 (UniProtKB/Swiss‐Prot under accession no. P51787), KCNQ2 (O43526), KCNQ3 (O43525), KCNE1 (P15382), Kir1.1 (P48048), hERG (Q12809), KV4.2 (Q63881), NaV1.5 (Q14524), NaV β1 (Q07699), CaV1.2 (Q13936), CaV β1a (Q02641), CaV α2/δ1 (P54289), and HCN4 (Q9Y3Q4) were subcloned into oocyte expression vectors, respectively. Site-directed mutations of the KCNQ1 channel were all produced by overlap extension polymerase chain reaction (PCR) with high-fidelity Pfu polymerase (Stratagene, CA). The presence of the desired mutation was verified by sequencing the PCR-amplified regions. All the primer sequences used in this study are available in Supplementary Table 1. The complementary RNA (cRNA) of all these channels and mutations was transcribed in vitro with the T3, T7, or SP6 polymerase mMessage mMachine kit (Invitrogen, Thermo Fisher Scientific, MO).
The whole-oocyte ionic currents were recorded with a GeneClamp 500B amplifier (Axon Instruments, CA) or iTEV90 amplifier (HEKA, Germany) and then sampled at 1 kHz and low-pass-filtered at 2 kHz. The Patchmaster software (HEKA, Germany) was used to acquire data. The Kir1.1 current was recorded with a high K^+ bath solution containing (in mM) 96 KCl, 4 NaCl, 1 CaCl2, 2 MgCl2, and 10 HEPES, pH 7.3–7.4. The HCN4 current was recorded in ND66 solution containing (in mM) 66 NaCl, 32 KCl, 1.8 CaCl2, 1 MgCl2, and 5 HEPES, pH 7.6. All the other potassium channels were recorded in ND96 solution. The currents of CaV1.2 channel were recorded in 40 mM Ba^2+ bath solution containing (in mM) 40 Ba(OH)2, 50 TEA-OH, 2 KOH, and 5 HEPES, adjusted to pH 7.4 with methanesulfonic acid. CP1 (DISODIUM 5-BROMO-2-[9-CHLORO-3-(SULFONATOOXY) NAPHTHO [1,2-B] THIEN-2-YL]-1H-INDOL-3-YL SULFATE, Sigma-Aldrich, MO) and Chromanol 293B (Sigma-Aldrich, MO) were dissolved in bath solutions. All the chemicals were purchased from Sigma-Aldrich. To measure the I–V relations of the Kir1.1 channel, the test voltage was set from −100 to +60 mV for 1 s with 20-mV increments. The test pulses were stepped from a holding potential of 0 mV and then stepped back to 0 mV. The HCN4 currents were recorded by a test pulse between −30 and −140 mV in 10-mV step from a holding potential of −30 mV. For all the other potassium channels and CaV1.2 channel, the holding potential was −80 or −100 mV, and the test pulse was applied with 10-mV increment, which was followed with a repolarization pulse at −40 mV before returning to the holding potential. The durations of test and the repolarization pulse vary for different channels to allow the activation and deactivation of the channel to reach their steady states.

O=S(=O)([O-])Oc1c(-c2sc3c(ccc4cccc(Cl)c43)c2OS(=O)(=O)[O-])[nH]c2ccc(Br)cc12.[Na+].[Na+] [CP1, DISODIUM 5-BROMO-2-[9-CHLORO-3-(SULFONATOOXY) NAPHTHO [1,2-B] THIEN-2-YL]-1H-INDOL-3-YL SULFATE]
effect on currents of Kir1.1: little effect
Current (Fig. 6b) (voltage 0 mV): -0.8738 µA
Current (Fig. 6b) (voltage 20 mV): 8.1285 µA
Current (Fig. 6b) (voltage 40 mV): 17.0203 µA
Current (Fig. 6b) (voltage 60 mV): 25.9074 µA
Current (Fig. 6b) (voltage -20 mV): -9.7186 µA
Current (Fig. 6b) (voltage -40 mV): -18.5616 µA
Current (Fig. 6b) (voltage -60 mV): -27.3089 µA
Current (Fig. 6b) (voltage -80 mV): -36.1588 µA
Current (Fig. 6b) (voltage -100 mV): -44.9245 µA
